# Test results taken from PMC12250302, “Synthesis, Antimicrobial Activities, and Model of Action of Novel Tetralone Derivatives Containing Aminoguanidinium Moiety” (International Journal of Molecular Sciences, 2025).
# How the values were obtained:
# [1] = tested on: E. faecium ATCC 35667; test: MIC and MBC testing, broth microdilution; type: cell-based, Enterococcus faecium; conditions: Enterococcus faecium
# In short: (§1)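 Log-phase cultures diluted in Mueller-Hinton broth to 1 × 10^6 CFU/mL were exposed to doubling dilutions of DMSO-dissolved compounds at 37 °C for 18 h, each concentration in triplicate. Lowest concentration lacking visible growth recorded as MIC; controls were levofloxacin and 0.1% DMSO.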
# [2] = tested on: S. aureus ATCC 29213; test: MIC and MBC testing, broth microdilution; type: cell-based, Staphylococcus aureus; conditions: Staphylococcus aureus
# In short: as §1
# [3] = tested on: MRSA-1; test: MIC and MBC testing, broth microdilution; type: cell-based, Staphylococcus aureus; conditions: Staphylococcus aureus, MRSA
# In short: (§2)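 Strains grown to logarithmic phase were diluted to 1 × 10^6 CFU/mL, combined with compound two-fold dilution series in MH broth, and incubated at 37 °C for 18 h. MIC and MBC were then recorded, with triplicate wells per concentration.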
# [4] = tested on: MRSA-2; test: MIC and MBC testing, broth microdilution; type: cell-based, Staphylococcus aureus; conditions: Staphylococcus aureus, MRSA
# In short: (§3)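 Compounds in DMSO were serially two-fold diluted in MH broth and mixed with log-phase bacteria diluted to 1 × 10^6 CFU/mL in MH broth, then incubated 18 h at 37 °C. MBC values were also determined. Each concentration was tested in triplicate.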
# [5] = tested on: clinical S. aureus isolate LMY45; test: MIC and MBC testing, broth microdilution; type: cell-based, Staphylococcus aureus; conditions: Staphylococcus aureus
# In short: as §2
# [6] = tested on: clinical S. aureus isolate LMY46; test: MIC and MBC testing, broth microdilution; type: cell-based, Staphylococcus aureus; conditions: Staphylococcus aureus
# In short: as §2
# [7] = tested on: clinical S. aureus isolate LMY47; test: MIC and MBC testing, broth microdilution; type: cell-based, Staphylococcus aureus; conditions: Staphylococcus aureus
# In short: as §3
# [8] = tested on: clinical S. aureus isolate LMY48; test: MIC and MBC testing, broth microdilution; type: cell-based, Staphylococcus aureus; conditions: Staphylococcus aureus
# In short: as §2
# [9] = tested on: MRSA-2 biofilm; test: Biofilm elimination assay (crystal violet); type: cell-based, Staphylococcus aureus; conditions: at the test concentration
# Experimental: The ability of 2D to eliminate biofilm was evaluated. MRSA-2 (1 × 10^6 CFU/mL) was incubated in 96-well plates for 24 h until biofilm formation. The planktonic bacteria were discarded and washed thrice with PBS. […] According to the above method, the OD575 nm value was detected after the following steps: PBS washing, methanol fixation, crystal violet staining, and ethanol incubation.
# [10] = tested on: MRSA-2 biofilm; test: Biofilm formation inhibition assay (crystal violet); type: cell-based, Staphylococcus aureus; conditions: Staphylococcus aureus, MRSA, 24 h, read-out: inhibition rate of biofilm formation
# Experimental: The effect of 2D on the biofilm formation of MRSA was evaluated. MRSA-2 was cultured in MH broth for a period of 3–5 h, after which it was diluted to a density of 1 × 10^6 CFU/mL with MH broth. […] After the removal of the suspended bacteria, the well plates were washed thrice with PBS. Then, 150 μL of methanol was added and fixed for 30 min. Subsequent to air-drying, 150 μL of a 0.1% crystal violet aqueous solution was added. Following a 15 min staining period, the excess crystal violet was removed by rinsing with flowing water. Finally, 150 μL of anhydrous ethanol was added and the mixture was incubated for 20 min. The optical density at 575 nm was detected.
# [11] = tested on: MRSA-2; test: MRSA-induced mouse skin abscess model; type: in vivo
# Source text: The MRSA-induced mouse skin abscess model was used to assess the in vivo antibacterial effects of 2D. Female KM mice, aged 4–6 weeks and weighing 20 ± 2 g, were purchased from the Laboratory Animal Center, Lanzhou Institute of Veterinary Medicine, Chinese Academy of Agricultural Sciences. The animal experiments were approved by the Ethics Committee of Research Involving Animals of the Lanzhou Institute of Husbandry and Pharmaceutical Science of CAAS (Approval number: 2025-03) and performed in accordance with the guidelines of the Ethics Committee for Animal Experiments. Prior to the formal experiment, all mice were acclimated for 5 days. The mice were kept in a pathogen-free environment with a 12 h light/12 h dark cycle, 50% ± 10% humidity, and a temperature of 24 °C ± 2 °C. […] The depilation method employed was as follows: depilatory paste was applied to the designated area for 10 min, after which it was thoroughly washed with 0.9% saline. The mice were semi-anesthetized by intraperitoneal injection with sodium Ulatan (TCI, 20%, 100 μL). […] After a 24 h interval, the administration was repeated, and 24 h after the last administration, the volume of abscess was measured and calculated. Then, the skin of the infected site and main organs were collected for tissue bacterial load and pathological detection.
# [12] = tested on: MRSA-2; test: Growth curve (OD600); type: cell-based, Staphylococcus aureus; conditions: 2D 0.5, 1, 2, 4, 8 µg/mL, vancomycin 0.5 and 1 μg/mL
# Experimental: (§4) The growth inhibition and time-dependent killing abilities of 2D were evaluated against S. aureus (ATCC 29213) and MRSA-2. After culturing the strains in MH broth until the logarithmic growth phase, they were diluted with MH broth to 1 × 10^6 CFU/mL. […] OD600 values were measured at predetermined time intervals (0, 1, 2, 4, 6, 8, 10, 12, and 24 h).
# [13] = tested on: S. aureus (ATCC 29213); test: Growth curve (OD600); type: cell-based, Staphylococcus aureus; conditions: 2D 0.5, 1, 2, 4, 8 µg/mL, vancomycin 0.5 and 1 μg/mL
# Experimental: as §4
# [14] = tested on: MRSA-2; test: Fluorescence microscopy assay (DAPI/PI); type: cell-based, Staphylococcus aureus; conditions: vancomycin 4 µg/mL; 2D 4 and 8 μg/mL; 2 h
# Experimental: MRSA-2 was cultivated to the logarithmic growth phase, then washed with PBS and resuspended in PBS until the concentration of bacterial suspension reached 1 × 10^8 CFU/mL. […] Thereafter, the samples were incubated with DAPI (10 μM) and PI (10 μM) in the dark for 15 min. The bacterial cells were then subjected to observation under a fluorescence microscope. DMSO served as the negative controls.
smiles,measurement,setting,value
"CN[C@H](CC(C)C)C(=O)N[C@H]1C(=O)N[C@@H](CC(N)=O)C(=O)N[C@H]2C(=O)N[C@H]3C(=O)N[C@H](C(=O)N[C@H](C(=O)O)c4cc(O)cc(O)c4-c4cc3ccc4O)[C@H](O)c3ccc(c(Cl)c3)Oc3cc2cc(c3O[C@@H]2O[C@H](CO)[C@@H](O)[C@H](O)[C@H]2O[C@H]2C[C@](C)(N)[C@H](O)[C@H](C)O2)Oc2ccc(cc2Cl)[C@H]1O [Vancomycin, reference compound]",MBC,[1]; ATCC35667,16 µg/mL
same,MIC,"[1]; ATCC35667, 18 h",2 µg/mL
same,MBC,[2]; ATCC29213,4 µg/mL
same,MIC,"[2]; ATCC29213, 18 h",1 µg/mL
same,MBC,[3],4 µg/mL
same,MIC,[3]; 18 h,1 µg/mL
same,MBC,[4],2 µg/mL
same,MIC,[4]; 18 h,1 µg/mL
same,MBC,[5],2 µg/mL
same,MIC,[5]; 18 h,0.5 µg/mL
same,MBC,[6],8 µg/mL
same,MIC,[6]; 18 h,1 µg/mL
same,MBC,[7],2 µg/mL
same,MIC,[7]; 18 h,1 µg/mL
same,MBC,[8],2 µg/mL
same,MIC,[8]; 18 h,1 µg/mL
same,biofilm elimination,[9],unable to completely eliminate the biofilm
same,inhibition at 0.25 µg/mL,[10],~18.5%
same,inhibition at 0.5 µg/mL,[10],~37.8%
same,purulent lesions at the infection site (skin histopathology),[11]; 5 mg/kg,significantly smaller
same,volume of skin abscess,"[11]; 5 mg/kg, injected 2 h and 24 h postinfection, compared to model and solvent group",reduced volume
same,bacterial load of the skin at the infected site,"[11]; 2D 5 and 10 mg/kg, vancomycin 5 mg/kg, compared with model and solvent group",significantly reduced
same,histopathology of the major organs,"[11]; infected mice after treatment, H&E",no discernible lesions
same,growth inhibition (growth curve),[12],failed to completely inhibit the growth
same,growth inhibition (growth curve),[13],failed to completely inhibit the growth
same,PI red fluorescence (damaged membranes),[14],a very small amount of red fluorescence
